Test results from PubChem BioAssay (NCI).
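Assay format: 96-well plates, 48-hour exposure. TGI denotes the concentration required for complete inhibition of growth.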

How the values were obtained:
Experiment in all cases: NCI tumour cell line growth inhibition, 48 h
BT-549 breast = system: BT-549 breast
U251 CNS = system: U251 CNS
M14 melanoma = system: M14 melanoma
SF-268 CNS = system: SF-268 CNS
HCC-2998 colon = system: HCC-2998 colon
MOLT-4 leukemia = system: MOLT-4 leukemia
OVCAR-5 ovarian = system: OVCAR-5 ovarian
MCF7 breast = system: MCF7 breast
LOX IMVI melanoma = system: LOX IMVI melanoma
PC-3 prostate = system: PC-3 prostate
786-0 renal = system: 786-0 renal
COLO 205 colon = system: COLO 205 colon
SK-MEL-5 melanoma = system: SK-MEL-5 melanoma
NCI-H226 lung = system: NCI-H226 lung
SF-295 CNS = system: SF-295 CNS
SF-539 CNS = system: SF-539 CNS
ACHN renal = system: ACHN renal
UO-31 renal = system: UO-31 renal
HOP-62 NSCLC = system: HOP-62 NSCLC
NCI-H460 lung = system: NCI-H460 lung
UACC-257 melanoma = system: UACC-257 melanoma
SR leukemia = system: SR leukemia
A549 NSCLC = system: A549 NSCLC
K-562 leukemia = system: K-562 leukemia
RPMI-8226 leukemia = system: RPMI-8226 leukemia
SW-620 colon = system: SW-620 colon
SK-MEL-28 melanoma = system: SK-MEL-28 melanoma
TK-10 renal = system: TK-10 renal
KM12 colon = system: KM12 colon
MDA-N = system: MDA-N
NCI-H23 lung = system: NCI-H23 lung
SK-OV-3 ovarian = system: SK-OV-3 ovarian
DU-145 prostate = system: DU-145 prostate
OVCAR-3 ovarian = system: OVCAR-3 ovarian
UACC-62 melanoma = system: UACC-62 melanoma
OVCAR-4 ovarian = system: OVCAR-4 ovarian
SNB-19 CNS = system: SNB-19 CNS
CAKI-1 renal = system: CAKI-1 renal
HOP-92 NSCLC = system: HOP-92 NSCLC
MDA-MB-435 = system: MDA-MB-435
HS 578T breast = system: HS 578T breast
OVCAR-8 ovarian = system: OVCAR-8 ovarian
IGROV1 ovarian = system: IGROV1 ovarian
RXF 393 renal = system: RXF 393 renal
CCRF-CEM leukemia = system: CCRF-CEM leukemia
EKVX NSCLC = system: EKVX NSCLC
HCT-15 colon = system: HCT-15 colon
NCI-H522 lung = system: NCI-H522 lung
SK-MEL-2 melanoma = system: SK-MEL-2 melanoma
MALME-3M melanoma = system: MALME-3M melanoma
HCT-116 colon = system: HCT-116 colon
MDA-MB-231 breast = system: MDA-MB-231 breast
SN12C renal = system: SN12C renal
NCI/ADR-RES ovarian = system: NCI/ADR-RES ovarian
A498 renal = system: A498 renal
T-47D breast = system: T-47D breast
HT29 colon = system: HT29 colon

Measured: TGI

c1ccc2c[n+](Cc3ccnc4ccccc34)ccc2c1
> 100 µM: BT-549 breast | U251 CNS | M14 melanoma | SF-268 CNS | HCC-2998 colon | MOLT-4 leukemia | OVCAR-5 ovarian | MCF7 breast | LOX IMVI melanoma | PC-3 prostate | 786-0 renal | COLO 205 colon | SK-MEL-5 melanoma | NCI-H226 lung | SF-295 CNS | SF-539 CNS | ACHN renal | UO-31 renal | HOP-62 NSCLC | NCI-H460 lung | UACC-257 melanoma | SR leukemia | A549 NSCLC | K-562 leukemia | RPMI-8226 leukemia | SW-620 colon | SK-MEL-28 melanoma | TK-10 renal | KM12 colon | MDA-N | NCI-H23 lung | SK-OV-3 ovarian | DU-145 prostate | OVCAR-3 ovarian | UACC-62 melanoma | OVCAR-4 ovarian | SNB-19 CNS | CAKI-1 renal | HOP-92 NSCLC | MDA-MB-435 | HS 578T breast | OVCAR-8 ovarian | IGROV1 ovarian | RXF 393 renal | CCRF-CEM leukemia | EKVX NSCLC | HCT-15 colon | NCI-H522 lung | SK-MEL-2 melanoma | MALME-3M melanoma | HCT-116 colon | MDA-MB-231 breast | SN12C renal | NCI/ADR-RES ovarian | A498 renal | T-47D breast | HT29 colon
